Test results from ChEMBL document CHEMBL4270580, “Syntheses of C-ring modified dehydroabietylamides and their cytotoxic activity” (Eur J Med Chem, 2018).

tested on: FaDu; experiment: Cytotoxicity against human FADU cells after 96 hrs by sulforhodamine-B assay; format: functional, cell-based; details: Homo sapiens, FaDu, 96 h; read-out: EC50

| SMILES | EC50 [µM] |
| --- | --- |
| CC(C)c1cc2c(cc1O)[C@@]1(C)CCC[C@@](C)(CN)[C@@H]1CC2 | 11.5 |
| COc1ccc(C(=O)NC[C@]2(C)CCC[C@]3(C)c4ccc(C(C)C)cc4CC[C@@H]23)cc1 | 17.3 |
| CC(C)c1ccc2c(c1)CC[C@H]1[C@](C)(CNC(=O)c3ccccc3)CCC[C@]21C | > 30 |
| CC(C)c1cc2c(cc1O)[C@@]1(C)CCC[C@@](C)(CNC(=O)c3ccc(O)cc3)[C@@H]1CC2 | > 30 |
| CC(=O)Oc1ccc(C(=O)NC[C@]2(C)CCC[C@]3(C)c4cc(OC(C)=O)c(C(C)C)cc4CC[C@@H]23)cc1 | 20.2 |
| CC(=O)Oc1cc2c(cc1C(C)C)CC[C@H]1[C@](C)(CNC(=O)c3ccncc3)CCC[C@]21C | 12.4 |
| COc1ccc(C(=O)NC[C@]2(C)CCC[C@]3(C)c4cc(O)c(C(C)C)cc4CC[C@@H]23)cc1 | 20 |
| CC(C)c1cc2c(cc1O)[C@@]1(C)CCC[C@@](C)(CNC(=O)CCCC[C@H]3SCC4NC(=O)NC43)[C@@H]1CC2 (some centres undefined) | > 30 |
| CC(C)c1ccc2c(c1)CC[C@H]1[C@](C)(CNC(=O)c3ccc(Cl)cc3)CCC[C@]21C | > 30 |
| CC(=O)Oc1cc2c(cc1C(C)C)CC[C@H]1[C@](C)(CNC(=O)c3ccc(Cl)cc3)CCC[C@]21C | 14.4 |
| CC(C)c1ccc2c(c1)CC[C@H]1[C@](C)(CNC(=O)c3ccc(O)cc3)CCC[C@]21C | 14.1 |
| CC(=O)Oc1cc2c(cc1C(C)C)CC[C@H]1[C@](C)(CNC(=O)c3ccccc3)CCC[C@]21C | 13.4 |
| CC(C)c1ccc2c(c1)CC[C@H]1[C@](C)(CNC(=O)CCCC[C@H]3SCC4NC(=O)NC43)CCC[C@]21C (some centres undefined) | 24.5 |

tested on: A2780; experiment: Cytotoxicity against human A2780 cells after 96 hrs by sulforhodamine-B assay; format: functional, cell-based; details: Homo sapiens, A2780, 96 h; read-out: EC50

| SMILES | EC50 [µM] |
| --- | --- |
| CC(C)c1cc2c(cc1O)[C@@]1(C)CCC[C@@](C)(CN)[C@@H]1CC2 | 17.3 |
| COc1ccc(C(=O)NC[C@]2(C)CCC[C@]3(C)c4ccc(C(C)C)cc4CC[C@@H]23)cc1 | 9.1 |
| CC(C)c1ccc2c(c1)CC[C@H]1[C@](C)(CNC(=O)c3ccccc3)CCC[C@]21C | > 30 |
| CC(C)c1cc2c(cc1O)[C@@]1(C)CCC[C@@](C)(CNC(=O)c3ccc(O)cc3)[C@@H]1CC2 | > 30 |
| CC(=O)Oc1ccc(C(=O)NC[C@]2(C)CCC[C@]3(C)c4cc(OC(C)=O)c(C(C)C)cc4CC[C@@H]23)cc1 | 17.9 |
| CC(=O)Oc1cc2c(cc1C(C)C)CC[C@H]1[C@](C)(CNC(=O)c3ccncc3)CCC[C@]21C | 14.4 |
| COc1ccc(C(=O)NC[C@]2(C)CCC[C@]3(C)c4cc(O)c(C(C)C)cc4CC[C@@H]23)cc1 | 13.2 |
| CC(C)c1cc2c(cc1O)[C@@]1(C)CCC[C@@](C)(CNC(=O)CCCC[C@H]3SCC4NC(=O)NC43)[C@@H]1CC2 (some centres undefined) | > 30 |
| CC(C)c1ccc2c(c1)CC[C@H]1[C@](C)(CNC(=O)c3ccc(Cl)cc3)CCC[C@]21C | > 30 |
| CC(=O)Oc1cc2c(cc1C(C)C)CC[C@H]1[C@](C)(CNC(=O)c3ccc(Cl)cc3)CCC[C@]21C | 5 |
| CC(C)c1ccc2c(c1)CC[C@H]1[C@](C)(CNC(=O)c3ccc(O)cc3)CCC[C@]21C | 8.7 |
| CC(=O)Oc1cc2c(cc1C(C)C)CC[C@H]1[C@](C)(CNC(=O)c3ccccc3)CCC[C@]21C | 8.1 |
| CC(C)c1ccc2c(c1)CC[C@H]1[C@](C)(CNC(=O)CCCC[C@H]3SCC4NC(=O)NC43)CCC[C@]21C (some centres undefined) | 18.6 |

tested on: HT-29; experiment: Cytotoxicity against human HT-29 cells after 96 hrs by sulforhodamine-B assay; format: functional, cell-based; details: Homo sapiens, HT-29, 96 h; read-out: EC50

| SMILES | EC50 [µM] |
| --- | --- |
| CC(C)c1cc2c(cc1O)[C@@]1(C)CCC[C@@](C)(CN)[C@@H]1CC2 | 9.5 |
| COc1ccc(C(=O)NC[C@]2(C)CCC[C@]3(C)c4ccc(C(C)C)cc4CC[C@@H]23)cc1 | 10.4 |
| CC(C)c1ccc2c(c1)CC[C@H]1[C@](C)(CNC(=O)c3ccccc3)CCC[C@]21C | > 30 |
| CC(C)c1cc2c(cc1O)[C@@]1(C)CCC[C@@](C)(CNC(=O)c3ccc(O)cc3)[C@@H]1CC2 | > 30 |
| CC(=O)Oc1ccc(C(=O)NC[C@]2(C)CCC[C@]3(C)c4cc(OC(C)=O)c(C(C)C)cc4CC[C@@H]23)cc1 | 11.2 |
| CC(=O)Oc1cc2c(cc1C(C)C)CC[C@H]1[C@](C)(CNC(=O)c3ccncc3)CCC[C@]21C | 15.3 |
| COc1ccc(C(=O)NC[C@]2(C)CCC[C@]3(C)c4cc(O)c(C(C)C)cc4CC[C@@H]23)cc1 | 13.5 |
| CC(C)c1cc2c(cc1O)[C@@]1(C)CCC[C@@](C)(CNC(=O)CCCC[C@H]3SCC4NC(=O)NC43)[C@@H]1CC2 (some centres undefined) | > 30 |
| CC(C)c1ccc2c(c1)CC[C@H]1[C@](C)(CNC(=O)c3ccc(Cl)cc3)CCC[C@]21C | > 30 |
| CC(=O)Oc1cc2c(cc1C(C)C)CC[C@H]1[C@](C)(CNC(=O)c3ccc(Cl)cc3)CCC[C@]21C | 11.7 |
| CC(C)c1ccc2c(c1)CC[C@H]1[C@](C)(CNC(=O)c3ccc(O)cc3)CCC[C@]21C | 8.5 |
| CC(=O)Oc1cc2c(cc1C(C)C)CC[C@H]1[C@](C)(CNC(=O)c3ccccc3)CCC[C@]21C | 9 |
| CC(C)c1ccc2c(c1)CC[C@H]1[C@](C)(CNC(=O)CCCC[C@H]3SCC4NC(=O)NC43)CCC[C@]21C (some centres undefined) | 15.5 |

tested on: MCF7; experiment: Cytotoxicity against human MCF7 cells after 96 hrs by sulforhodamine-B assay; format: functional, cell-based; details: Homo sapiens, MCF7, 96 h; read-out: EC50

| SMILES | EC50 [µM] |
| --- | --- |
| CC(C)c1cc2c(cc1O)[C@@]1(C)CCC[C@@](C)(CN)[C@@H]1CC2 | 8.9 |
| COc1ccc(C(=O)NC[C@]2(C)CCC[C@]3(C)c4ccc(C(C)C)cc4CC[C@@H]23)cc1 | 4.5 |
| CC(C)c1ccc2c(c1)CC[C@H]1[C@](C)(CNC(=O)c3ccccc3)CCC[C@]21C | > 30 |
| CC(C)c1cc2c(cc1O)[C@@]1(C)CCC[C@@](C)(CNC(=O)c3ccc(O)cc3)[C@@H]1CC2 | > 30 |
| CC(=O)Oc1ccc(C(=O)NC[C@]2(C)CCC[C@]3(C)c4cc(OC(C)=O)c(C(C)C)cc4CC[C@@H]23)cc1 | 10.5 |
| CC(=O)Oc1cc2c(cc1C(C)C)CC[C@H]1[C@](C)(CNC(=O)c3ccncc3)CCC[C@]21C | 5.7 |
| COc1ccc(C(=O)NC[C@]2(C)CCC[C@]3(C)c4cc(O)c(C(C)C)cc4CC[C@@H]23)cc1 | 11.7 |
| CC(C)c1cc2c(cc1O)[C@@]1(C)CCC[C@@](C)(CNC(=O)CCCC[C@H]3SCC4NC(=O)NC43)[C@@H]1CC2 (some centres undefined) | > 30 |
| CC(C)c1ccc2c(c1)CC[C@H]1[C@](C)(CNC(=O)c3ccc(Cl)cc3)CCC[C@]21C | > 30 |
| CC(=O)Oc1cc2c(cc1C(C)C)CC[C@H]1[C@](C)(CNC(=O)c3ccc(Cl)cc3)CCC[C@]21C | 6.1 |
| CC(C)c1ccc2c(c1)CC[C@H]1[C@](C)(CNC(=O)c3ccc(O)cc3)CCC[C@]21C | 8 |
| CC(=O)Oc1cc2c(cc1C(C)C)CC[C@H]1[C@](C)(CNC(=O)c3ccccc3)CCC[C@]21C | 4.5 |
| CC(C)c1ccc2c(c1)CC[C@H]1[C@](C)(CNC(=O)CCCC[C@H]3SCC4NC(=O)NC43)CCC[C@]21C (some centres undefined) | 11.6 |

tested on: SW-1736; experiment: Cytotoxicity against human SW1736 cells after 96 hrs by sulforhodamine-B assay; format: functional, cell-based; details: Homo sapiens, SW-1736, 96 h; read-out: EC50

| SMILES | EC50 [µM] |
| --- | --- |
| CC(C)c1cc2c(cc1O)[C@@]1(C)CCC[C@@](C)(CN)[C@@H]1CC2 | 13.6 |
| COc1ccc(C(=O)NC[C@]2(C)CCC[C@]3(C)c4ccc(C(C)C)cc4CC[C@@H]23)cc1 | 11.2 |
| CC(C)c1ccc2c(c1)CC[C@H]1[C@](C)(CNC(=O)c3ccccc3)CCC[C@]21C | > 30 |
| CC(C)c1cc2c(cc1O)[C@@]1(C)CCC[C@@](C)(CNC(=O)c3ccc(O)cc3)[C@@H]1CC2 | > 30 |
| CC(=O)Oc1ccc(C(=O)NC[C@]2(C)CCC[C@]3(C)c4cc(OC(C)=O)c(C(C)C)cc4CC[C@@H]23)cc1 | 17.2 |
| CC(=O)Oc1cc2c(cc1C(C)C)CC[C@H]1[C@](C)(CNC(=O)c3ccncc3)CCC[C@]21C | 12.8 |
| COc1ccc(C(=O)NC[C@]2(C)CCC[C@]3(C)c4cc(O)c(C(C)C)cc4CC[C@@H]23)cc1 | 16.1 |
| CC(C)c1cc2c(cc1O)[C@@]1(C)CCC[C@@](C)(CNC(=O)CCCC[C@H]3SCC4NC(=O)NC43)[C@@H]1CC2 (some centres undefined) | > 30 |
| CC(C)c1ccc2c(c1)CC[C@H]1[C@](C)(CNC(=O)c3ccc(Cl)cc3)CCC[C@]21C | > 30 |
| CC(=O)Oc1cc2c(cc1C(C)C)CC[C@H]1[C@](C)(CNC(=O)c3ccc(Cl)cc3)CCC[C@]21C | 15.3 |
| CC(C)c1ccc2c(c1)CC[C@H]1[C@](C)(CNC(=O)c3ccc(O)cc3)CCC[C@]21C | 13 |
| CC(=O)Oc1cc2c(cc1C(C)C)CC[C@H]1[C@](C)(CNC(=O)c3ccccc3)CCC[C@]21C | 13.5 |
| CC(C)c1ccc2c(c1)CC[C@H]1[C@](C)(CNC(=O)CCCC[C@H]3SCC4NC(=O)NC43)CCC[C@]21C (some centres undefined) | > 30 |

tested on: NIH3T3; experiment: Cytotoxicity against mouse NIH/3T3 cells after 96 hrs by sulforhodamine-B assay; format: cell-based; details: Mus musculus, NIH3T3, 96 h; read-out: EC50

| SMILES | EC50 [µM] |
| --- | --- |
| CC(C)c1cc2c(cc1O)[C@@]1(C)CCC[C@@](C)(CN)[C@@H]1CC2 | 22 |
| COc1ccc(C(=O)NC[C@]2(C)CCC[C@]3(C)c4ccc(C(C)C)cc4CC[C@@H]23)cc1 | 22.8 |
| CC(C)c1ccc2c(c1)CC[C@H]1[C@](C)(CNC(=O)c3ccccc3)CCC[C@]21C | > 30 |
| CC(C)c1cc2c(cc1O)[C@@]1(C)CCC[C@@](C)(CNC(=O)c3ccc(O)cc3)[C@@H]1CC2 | > 30 |
| CC(=O)Oc1ccc(C(=O)NC[C@]2(C)CCC[C@]3(C)c4cc(OC(C)=O)c(C(C)C)cc4CC[C@@H]23)cc1 | 21.4 |
| CC(=O)Oc1cc2c(cc1C(C)C)CC[C@H]1[C@](C)(CNC(=O)c3ccncc3)CCC[C@]21C | 29.5 |
| COc1ccc(C(=O)NC[C@]2(C)CCC[C@]3(C)c4cc(O)c(C(C)C)cc4CC[C@@H]23)cc1 | 23.2 |
| CC(C)c1cc2c(cc1O)[C@@]1(C)CCC[C@@](C)(CNC(=O)CCCC[C@H]3SCC4NC(=O)NC43)[C@@H]1CC2 (some centres undefined) | > 30 |
| CC(C)c1ccc2c(c1)CC[C@H]1[C@](C)(CNC(=O)c3ccc(Cl)cc3)CCC[C@]21C | > 30 |
| CC(=O)Oc1cc2c(cc1C(C)C)CC[C@H]1[C@](C)(CNC(=O)c3ccc(Cl)cc3)CCC[C@]21C | > 30 |
| CC(C)c1ccc2c(c1)CC[C@H]1[C@](C)(CNC(=O)c3ccc(O)cc3)CCC[C@]21C | 6.9 |
| CC(=O)Oc1cc2c(cc1C(C)C)CC[C@H]1[C@](C)(CNC(=O)c3ccccc3)CCC[C@]21C | 17.3 |
| CC(C)c1ccc2c(c1)CC[C@H]1[C@](C)(CNC(=O)CCCC[C@H]3SCC4NC(=O)NC43)CCC[C@]21C (some centres undefined) | 15.7 |

tested on: not listed separately; experiment: Selectivity index, ratio of EC50 for mouse NIH/3T3 cells to EC50 for human MCF7 cells; format: toxicity; details: NIH/3T3 cells and MCF7 cells, read-out: Ratio EC50

| SMILES | selectivity ratio |
| --- | --- |
| COc1ccc(C(=O)NC[C@]2(C)CCC[C@]3(C)c4ccc(C(C)C)cc4CC[C@@H]23)cc1 | 8.8 |
